Question: With `Cc1nc2cc(N)ccc2s1` as the molecule, how does the solubility (mole fraction) (in ethanol, 288.5 K) read?
Answer: 0.00125

Question: And the solubility (mole fraction) (in ethanol, 293.5 K)?
Answer: 0.00129

Question: What about the solubility (mole fraction) (in ethanol, 298.5 K) of the same molecule?
Answer: 0.00156

Question: And the solubility (mole fraction) (in ethanol, 303.5 K)?
Answer: 0.00164

Question: And the solubility (mole fraction) (in ethanol, 308.5 K)?
Answer: 0.00174

Question: And the solubility (mole fraction) (in ethanol, 313.5 K)?
Answer: 0.00194

Question: And the solubility (mole fraction) (in ethanol, 318.5 K)?
Answer: 0.0022

Question: And the solubility (mole fraction) (in ethanol, 323.5 K)?
Answer: 0.00253

Question: And the solubility (mole fraction) (in ethanol, 328.5 K)?
Answer: 0.00284

Question: And the solubility (mole fraction) (in water, 288.5 K)?
Answer: 0.000191

Question: What about the solubility (mole fraction) (in water, 293.5 K) of the same molecule?
Answer: 0.000269

Question: What about the solubility (mole fraction) (in water, 298.5 K) of the same molecule?
Answer: 0.000311

Question: What about the solubility (mole fraction) (in water, 303.5 K) of the same molecule?
Answer: 0.000491

Question: And the solubility (mole fraction) (in water, 308.5 K)?
Answer: 0.000534

Question: What about the solubility (mole fraction) (in water, 313.5 K) of the same molecule?
Answer: 0.000745

Question: And the solubility (mole fraction) (in water, 318.5 K)?
Answer: 0.000872

Question: And the solubility (mole fraction) (in water, 323.5 K)?
Answer: 0.000937

Question: What about the solubility (mole fraction) (in water, 328.5 K) of the same molecule?
Answer: 0.00113

Source: BigSolDB 2.1
